Laboratory results: patent US12268694B2, “Combination pharmaceutical agents as RSV inhibitors” (Enanta Pharmaceuticals, Inc., priority 2017, dated 2025)

Legend:
[1] = test system: genotype A, "Long" strain RSV; assay: RSV-A assay: CPE protection in HEp-2 cells, ATPlite readout; assay type: cell-based, human respiratory syncytial virus; conditions: human respiratory syncytial virus, HEp-2, read-out: Human RSV-A (“Long” strain) EC50
In short: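 HEp-2 cells (8,000/well) with 2-fold compound dilutions in duplicate, infected with Long-strain RSV at MOI 0.1 and incubated 5 days. Cell ATP measured by ATPlite luminescence to give EC50; uninfected parallel plate gives CC50.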

[2] = test system: RSV genotype B, strain 9320; assay: RSV-B assay: A549 cells infected with RSV-B, qPCR or ATPlite readout; assay type: cell-based; conditions: human respiratory syncytial virus, A549, 144 h, read-out: Human RSV-B EC50
Source text: HEp-2 cells, (originally derived from tumors grown in irradiated-cortisonised weanling rats that had been injected with epidermoid carcinoma tissue from a person's larynx, but later found to be indistinguishable from HeLa cells by PCR DNA analysis), were used for the culturing of genotype B, strain 9320. Flasks were inoculated with RSV-B and viral stocks were collected once cytopathic effect (CPE) was greater than […]. Viral stocks in 25% sucrose media were snap frozen using liquid nitrogen to increase viral stability. Viral stock titers were quantified by tissue culture infectious dose 50% (TCID50) using 8,000 cells per well and 5-fold viral dilutions across a 96-well plate, cultured for 4 days. Viral stock titers were also quantified by a plaque forming unit assay, as described elsewhere.
The assay is run as follows: A549 cells (originally derived through explant culture from a person's carcinomatous lung tissue) are seeded into the inner 60 wells of a 96-well plate at 3,000 cells per well in a volume of 50 μL using A549 growth media (F-12K Media, 1% Penn/Strep, 1% nonessential amino acids, 10% heat-inactivated FBS). 2-fold serial dilutions of control and test compounds are added to the wells in duplicate in a total volume of 25 μL. Viral stock is then added to the wells at a multiplicity of infection (MOI) of 0.5 in a volume of 25 μL, bringing the total volume of each well to 100 μL. The MOI is calculated using the PFU/mL, or TCID50 if unavailable. Each 96-well plate has a control column of 6 wells with cells and virus but no compound (negative control, max CPE), a column with cells but no compound or virus (positive control, minimum CPE), and a column with no cells or virus or compound (background plate/reagent control). The control wells with cells but no virus are given an additional 25 μL of growth media containing an equal quantity of sucrose as those wells receiving the viral stock in order to keep consistent in media and volume conditions. The outer wells of the plate are filled with 125 μL of moat media (DMEM, 1% Penn/Strep) to act as a thermal and evaporative moat around the test wells. 6 days post infection, the plates are read using qPCR or ATP lite (50 μL added per well), which quantifies the amount of ATP (a measure of cell health) present in each well. Assay plates treated with APTlite are read using the Envision luminometer. […] EC50 ranges are as follows: A <0.4 μM; B 0.4-0.8 μM; C >0.8 μM.

`O=C1Nc2ccccc2C(c2ccccc2)=N[C@@H]1Nc1nnc(-c2ncc(C(F)(F)F)cc2N2CC3CCC(C2)O3)o1` [Example 251] was tested, and the EC50 [1] was < 400 nM and the EC50 [2] was < 400 nM.

In the case of `O=C1Nc2ccccc2C(c2ccccc2)=N[C@@H]1Nc1nnc(-c2nc(-c3ccccn3)sc2N2CCOCC2)o1` [Example 341], the EC50 [1] is reported as < 400 nM and the EC50 [2] is reported as < 400 nM.

`C[C@H]1CN(c2ncccc2-c2nnc(NC3N=C(c4ccccc4)c4ccccc4NC3=O)o2)CCO1` (stereo partly drawn) [Example 263] showed an EC50 [1] of 400 to 800 nM and an EC50 [2] of 400 to 800 nM.

`C[C@H]1CN(c2cc(C(F)(F)F)cnc2-c2nnc(N[C@H]3N=C(c4ccccc4)c4ccccc4NC3=O)o2)CCO1` [Example 278] was tested, and the EC50 [1] was < 400 nM and the EC50 [2] was < 400 nM.

`Cc1nc(-c2nnc(N[C@H]3N=C(c4ccccc4)c4ccccc4NC3=O)o2)c(N2CCOCC2)s1` [Example 272] was tested, and the EC50 [1] was < 400 nM and the EC50 [2] was < 400 nM.

`Cn1c(N2CCOCC2)c(-c2nnc(N[C@H]3N=C(c4ccccc4)c4ccccc4NC3=O)o2)ccc1=O` [Example 155] was tested, and the EC50 [1] was < 400 nM and the EC50 [2] was < 400 nM.

In the case of `O=C1Nc2ccccc2C(c2ccccc2)=NC1Nc1nnc(-c2ccc(-n3cccn3)cc2)[nH]1` (stereo not drawn) [Example 364], the EC50 [1] is reported as < 400 nM and the EC50 [2] is reported as 400 to 800 nM.

In the case of `CCc1nc(-c2nnc(N[C@H]3N=C(c4ccccc4)c4ccccc4NC3=O)o2)c(N2CCOCC2)s1` [Example 385], the EC50 [1] is reported as < 400 nM and the EC50 [2] is reported as < 400 nM.

With `C[C@@H]1CN(c2cc(C(F)(F)F)cnc2-c2nnc(N[C@H]3N=C(c4ccccc4)c4ccccc4NC3=O)o2)CCO1` [Example 277] the EC50 [1] was < 400 nM and the EC50 [2] was < 400 nM.

`O=C1Nc2ccccc2C(c2ccccc2)=NC1Nc1nnc(-c2ccc(-n3cccn3)cc2N2CCOCC2)o1` (stereo not drawn) [Example 129] was tested, and the EC50 [1] was < 400 nM and the EC50 [2] was < 400 nM.

With `O=C1Nc2ccccc2C(c2ccccc2)=N[C@@H]1Nc1nnc(-c2ccc(C(F)(F)F)nc2N2CC3CCC(C2)O3)o1` [Example 276] the EC50 [1] was 400 to 800 nM and the EC50 [2] was > 800 nM.

For `O=C1Nc2ccccc2C(c2ccccc2)=NC1Nc1nnc(-c2ccc(F)cc2N2CCOCC2)o1` (stereo not drawn) [Example 127], the EC50 [1] was < 400 nM and the EC50 [2] was < 400 nM.

For `N#Cc1cnc(-c2nnc(N[C@H]3N=C(c4ccccc4)c4ccccc4NC3=O)o2)c(N2CC3CCC(C2)O3)c1` [Example 304], the EC50 [1] was < 400 nM and the EC50 [2] was < 400 nM.

In the case of `N#Cc1ccc(-c2nnc(N[C@H]3N=C(c4ccccc4)c4ccccc4NC3=O)o2)c(N2CCOCC2)n1` [Example 153], the EC50 [1] is reported as < 400 nM and the EC50 [2] is reported as < 400 nM.

`CC(F)(F)c1nc(-c2nnc(N[C@H]3N=C(c4ccccc4)c4ccccc4NC3=O)o2)c(N2CCOCC2)s1` [Example 407] was tested, and the EC50 [1] was < 400 nM and the EC50 [2] was < 400 nM.

`COCCOc1cc(C#N)ccc1-c1nnc(N[C@H]2N=C(c3ccccc3)c3ccccc3NC2=O)o1` [Example 300] was tested, and the EC50 [1] was < 400 nM and the EC50 [2] was < 400 nM.

With `COC1CCN(c2cc(C(F)(F)F)cnc2-c2nnc(N[C@H]3N=C(c4ccccc4)c4ccccc4NC3=O)o2)CC1` [Example 268] the EC50 [1] was > 800 nM and the EC50 [2] was 400 to 800 nM.

In the case of `Cc1nc(N2CCOCC2)c(-c2nnc(N[C@H]3N=C(c4ccccc4)c4ccccc4NC3=O)o2)cc1C#N` [Example 158], the EC50 [1] is reported as < 400 nM and the EC50 [2] is reported as < 400 nM.

`N#Cc1cc(-c2nnc(N[C@H]3N=C(c4ccccc4)c4ccccc4NC3=O)o2)c(N2CCOCC2)nc1C1CC1` [Example 175] was tested, and the EC50 [1] was < 400 nM and the EC50 [2] was 400 to 800 nM.

In the case of `O=C1Nc2ccccc2C(c2ccccc2)=NC1Nc1nnc(-c2ccc(C(F)(F)F)cc2N2CCOCC2)o1` (stereo not drawn) [Example 123], the EC50 [1] is reported as < 400 nM and the EC50 [2] is reported as 400 to 800 nM.

`O=C1Nc2ccccc2C(c2ccccc2)=N[C@@H]1Nc1nnc(-c2nc(C3CCC3)sc2N2CCOCC2)o1` [Example 387] was tested, and the EC50 [1] was < 400 nM and the EC50 [2] was < 400 nM.

`O=C1Nc2ccccc2C(c2ccccc2)=NC1Nc1nnc(-c2cccnc2N2CCOCC2)o1` (stereo not drawn) [Example 120] was tested, and the EC50 [1] was < 400 nM and the EC50 [2] was 400 to 800 nM.

`Cc1ccc(-c2nnc(NC3N=C(c4ccccc4)c4ccccc4NC3=O)o2)c(N2CCOCC2)n1` (stereo not drawn) [Example 144] was tested, and the EC50 [1] was < 400 nM and the EC50 [2] was < 400 nM.

With `O=C1Nc2ccccc2C(c2ccccc2)=N[C@@H]1Nc1nnc(-c2nc(-c3cccnc3)sc2N2CCOCC2)o1` [Example 388] the EC50 [1] was < 400 nM and the EC50 [2] was < 400 nM.
